The text below walks through data of patent US8378104B2 (OSI Pharmaceuticals, LLC, priority 2010, dated 2013).

For one assay, the target named is T1, TAK1-TAB1 fusion protein (Homo sapiens, UniProt O43318).
T1 construct: purchased Carna
T1 sequence (O43318 with tags, fused parts or gaps limits assumed): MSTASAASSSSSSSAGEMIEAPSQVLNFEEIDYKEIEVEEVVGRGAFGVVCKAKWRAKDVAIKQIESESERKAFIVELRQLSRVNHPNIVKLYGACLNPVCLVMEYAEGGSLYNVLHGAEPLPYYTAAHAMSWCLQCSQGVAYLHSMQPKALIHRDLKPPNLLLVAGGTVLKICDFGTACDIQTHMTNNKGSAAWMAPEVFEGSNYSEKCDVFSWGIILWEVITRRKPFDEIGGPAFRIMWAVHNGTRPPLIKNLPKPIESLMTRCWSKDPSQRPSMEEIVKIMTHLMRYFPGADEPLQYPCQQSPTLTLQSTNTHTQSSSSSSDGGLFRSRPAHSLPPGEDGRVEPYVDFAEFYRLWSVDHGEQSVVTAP
In words: TAK1 biochemical assay (AlphaScreen, GST-MAP2K7 substrate). Conditions: TAK1-TAB1 fusion protein, GST-MAP2K7 substrate; read-out: mean TAK1 IC50 (Col. A). Background: Alpha assays give light when donor and acceptor beads are brought close together.

Another assay has as its system p-p38 in HCT-116 cells. As to the kind of experiment: Phospho-p38 Meso Scale ELISA assay, TNFα-stimulated HCT-116 cells. As to conditions: Homo sapiens, read-out: mean HCT-116 p-p38 ELISA IC50 (Col. C). The assay is classed as cell-based. The essentials:
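Phospho-p38 measured by Meso Scale ELISA on diluted lysates, captured overnight at 4° C. Before lysis, HCT-116 cells were serum-reduced (1% FCS, 2 h), treated with compounds 4 h at 37° C and stimulated 10 min with 10 ng/mL TNFα final.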

Another assay deals with pJNK in HCT-116 cells. In words: Phospho-JNK (Thr183/Tyr185) Meso Scale ELISA assay, TNFα-stimulated HCT-116 cells. The assay is classed as cell-based. As to conditions: Homo sapiens, read-out: mean HCT-116 pJNK ELISA IC50 (Col. B). The essentials:
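Meso Scale ELISA read of phospho-JNK (Thr183/Tyr185) in lysed HCT-116 cells. Cells were serum-reduced to 1% FCS for 2 hours, exposed to test drug for 4 hrs at 37° C, then given 10 ng/mL TNFα (final) for 10 minutes before lysis.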

One may read the IC50 as the point on the concentration scale where inhibition reaches its midpoint.

Turning to `CC(=O)N1CCC(n2cc(-c3cnc(N)c4oc(-c5ccc6ncn(C)c6c5)cc34)cn2)CC1` [Example 111, 1-(4-{4-[7-amino-2-(1-methyl-1H-benzimidazol-6-yl)furo[2,3-c]pyridin-4-yl]-1H-pyrazol-1-yl}piperidin-1-yl)ethanone], the values for the IC50 on TAK1-TAB1 fusion protein, in the assay with p-p38 in HCT-116 cells and with pJNK in HCT-116 cells were 100 to 1000 nM, > 10000 nM and 1000 to 10000 nM, respectively.
